Laboratory results taken from the supplement of paper PMC10307832.

Tests used:
Assay in all cases: relative viability (nuclei count vs DMSO), 5 days (fraction); higher = more cells survive
LXF-289 = tested on: LXF-289
Outline: (§1)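 After 5 days of treatment, lung cancer cells in 1536-well plates were fixed and stained in a single step (final 0.05% Triton X-100, 1% formaldehyde, 1 ug/ml Hoechst) and their nuclei counted on 4× images. Treatment had been applied by pin tool the day after seeding as one drug alone or as a fixed anchor-drug dose with five library-drug doses (not always all listed) in √10 steps. Relative viability is the nuclei count of treated wells divided by that of vehicle wells, and values are medians of duplicate plates.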

NCI-H358 = tested on: NCI-H358
Outline: as §1

NCI-H1651 = tested on: NCI-H1651
Outline: as §1

EMC-BAC-2 = tested on: EMC-BAC-2
Outline: as §1

NCI-H2126 = tested on: NCI-H2126
Outline: as §1

NCI-H1793 = tested on: NCI-H1793
Outline: as §1

EKVX = tested on: EKVX
Outline: as §1

UMC-11 = tested on: UMC-11
Outline: as §1

A-427 = tested on: A-427
Outline: as §1

NCI-H3122 = tested on: NCI-H3122
Outline: as §1

NCI-H2023 = tested on: NCI-H2023
Outline: as §1

NCI-H322M = tested on: NCI-H322M
Outline: as §1

SW 1573 = tested on: SW 1573
Outline: as §1

EPLC-272H = tested on: EPLC-272H
Outline: as §1

BEN = tested on: BEN
Outline: as §1

HCC-44 = tested on: HCC-44
Outline: as §1

NCI-H596 = tested on: NCI-H596
Outline: as §1

LCLC-103H = tested on: LCLC-103H
Outline: as §1

NCI-H2087 = tested on: NCI-H2087
Outline: as §1

NCI-H1650 = tested on: NCI-H1650
Outline: as §1

SK-LU-1 = tested on: SK-LU-1
Outline: as §1

COR-L23 = tested on: COR-L23
Outline: as §1

201T = tested on: 201T
Outline: as §1

Q: How did the relative viability (LXF-289; first compound 0.08 µM) turn out when `Oc1nc(-c2ccc(C(F)(F)F)cc2)nc2c1CSCC2` [XAV939] + CC(=O)Nc1cccc(-n2c(=O)n(C3CC3)c(=O)c3c(Nc4ccc(I)cc4F)n(C)c(=O)c(C)c32)c1 [Trametinib] (partner 0.02 µM) was run?
A: 0.665

Q: What about the relative viability (LXF-289; first compound 0.253 µM) of the same molecule?
A: 0.632

Q: And the relative viability (LXF-289; first compound 0.8 µM)?
A: 0.687

Q: What about the relative viability (LXF-289; first compound 2.53 µM) of the same molecule?
A: 0.729

Q: And the relative viability (NCI-H358; first compound 0.08 µM)?
A: 0.139

Q: What about the relative viability (NCI-H358; first compound 0.253 µM) of the same molecule?
A: 0.134

Q: And the relative viability (NCI-H358; first compound 0.8 µM)?
A: 0.122

Q: And the relative viability (NCI-H358; first compound 2.53 µM)?
A: 0.108

Q: What about the relative viability (NCI-H1651; first compound 0.08 µM) of the same molecule?
A: 0.821

Q: What about the relative viability (NCI-H1651; first compound 0.253 µM) of the same molecule?
A: 0.724

Q: And the relative viability (NCI-H1651; first compound 0.8 µM)?
A: 0.825

Q: And the relative viability (NCI-H1651; first compound 2.53 µM)?
A: 0.816

Q: And the relative viability (EMC-BAC-2; first compound 0.08 µM)?
A: 0.972

Q: And the relative viability (EMC-BAC-2; first compound 0.253 µM)?
A: 0.875

Q: What about the relative viability (EMC-BAC-2; first compound 0.8 µM) of the same molecule?
A: 0.78

Q: And the relative viability (EMC-BAC-2; first compound 2.53 µM)?
A: 0.671

Q: What about the relative viability (NCI-H2126; first compound 0.08 µM) of the same molecule?
A: 0.458

Q: And the relative viability (NCI-H2126; first compound 0.253 µM)?
A: 0.44

Q: What about the relative viability (NCI-H2126; first compound 0.8 µM) of the same molecule?
A: 0.478

Q: And the relative viability (NCI-H2126; first compound 2.53 µM)?
A: 0.392

Q: And the relative viability (NCI-H1793; first compound 0.08 µM)?
A: 0.576

Q: And the relative viability (NCI-H1793; first compound 0.253 µM)?
A: 0.381

Q: And the relative viability (NCI-H1793; first compound 0.8 µM)?
A: 0.381

Q: What about the relative viability (NCI-H1793; first compound 2.53 µM) of the same molecule?
A: 0.353

Q: And the relative viability (EKVX; first compound 0.08 µM)?
A: 0.346

Q: What about the relative viability (EKVX; first compound 0.253 µM) of the same molecule?
A: 0.317

Q: What about the relative viability (EKVX; first compound 0.8 µM) of the same molecule?
A: 0.311

Q: And the relative viability (EKVX; first compound 2.53 µM)?
A: 0.245

Q: What about the relative viability (UMC-11; first compound 0.08 µM) of the same molecule?
A: 0.692

Q: What about the relative viability (UMC-11; first compound 0.253 µM) of the same molecule?
A: 0.703

Q: What about the relative viability (UMC-11; first compound 0.8 µM) of the same molecule?
A: 0.879

Q: And the relative viability (UMC-11; first compound 2.53 µM)?
A: 0.632

Q: And the relative viability (A-427; first compound 0.08 µM)?
A: 0.818

Q: And the relative viability (A-427; first compound 0.253 µM)?
A: 0.737

Q: What about the relative viability (A-427; first compound 0.8 µM) of the same molecule?
A: 0.781

Q: And the relative viability (A-427; first compound 2.53 µM)?
A: 0.658

Q: What about the relative viability (NCI-H3122; first compound 0.08 µM) of the same molecule?
A: 0.257

Q: And the relative viability (NCI-H3122; first compound 0.253 µM)?
A: 0.211

Q: What about the relative viability (NCI-H3122; first compound 0.8 µM) of the same molecule?
A: 0.237

Q: And the relative viability (NCI-H3122; first compound 2.53 µM)?
A: 0.196

Q: And the relative viability (NCI-H2023; first compound 0.08 µM)?
A: 0.625

Q: What about the relative viability (NCI-H2023; first compound 0.253 µM) of the same molecule?
A: 0.365

Q: What about the relative viability (NCI-H2023; first compound 0.8 µM) of the same molecule?
A: 0.473

Q: What about the relative viability (NCI-H2023; first compound 2.53 µM) of the same molecule?
A: 0.407

Q: And the relative viability (NCI-H322M; first compound 0.08 µM)?
A: 0.601

Q: What about the relative viability (NCI-H322M; first compound 0.253 µM) of the same molecule?
A: 0.526

Q: And the relative viability (NCI-H322M; first compound 0.8 µM)?
A: 0.555

Q: What about the relative viability (NCI-H322M; first compound 2.53 µM) of the same molecule?
A: 0.48

Q: What about the relative viability (SW 1573; first compound 0.08 µM) of the same molecule?
A: 0.63

Q: And the relative viability (SW 1573; first compound 0.253 µM)?
A: 0.545

Q: What about the relative viability (SW 1573; first compound 0.8 µM) of the same molecule?
A: 0.608

Q: What about the relative viability (SW 1573; first compound 2.53 µM) of the same molecule?
A: 0.425

Q: And the relative viability (EPLC-272H; first compound 0.08 µM)?
A: 0.29

Q: What about the relative viability (EPLC-272H; first compound 0.253 µM) of the same molecule?
A: 0.251

Q: And the relative viability (EPLC-272H; first compound 0.8 µM)?
A: 0.274

Q: And the relative viability (EPLC-272H; first compound 2.53 µM)?
A: 0.23

Q: And the relative viability (BEN; first compound 0.08 µM)?
A: 1.07

Q: What about the relative viability (BEN; first compound 0.253 µM) of the same molecule?
A: 1.01

Q: And the relative viability (BEN; first compound 0.8 µM)?
A: 1.19

Q: What about the relative viability (BEN; first compound 2.53 µM) of the same molecule?
A: 0.88

Q: And the relative viability (HCC-44; first compound 0.08 µM)?
A: 1.04

Q: And the relative viability (HCC-44; first compound 0.253 µM)?
A: 0.843

Q: And the relative viability (HCC-44; first compound 0.8 µM)?
A: 0.927

Q: And the relative viability (HCC-44; first compound 2.53 µM)?
A: 0.924

Q: What about the relative viability (NCI-H596; first compound 0.08 µM) of the same molecule?
A: 0.974

Q: And the relative viability (NCI-H596; first compound 0.253 µM)?
A: 0.775

Q: And the relative viability (NCI-H596; first compound 0.8 µM)?
A: 0.75

Q: And the relative viability (NCI-H596; first compound 2.53 µM)?
A: 0.657

Q: What about the relative viability (LCLC-103H; first compound 0.08 µM) of the same molecule?
A: 0.704

Q: What about the relative viability (LCLC-103H; first compound 0.253 µM) of the same molecule?
A: 0.641

Q: What about the relative viability (LCLC-103H; first compound 0.8 µM) of the same molecule?
A: 0.672

Q: What about the relative viability (LCLC-103H; first compound 2.53 µM) of the same molecule?
A: 0.676

Q: And the relative viability (NCI-H2087; first compound 0.08 µM)?
A: 0.198

Q: And the relative viability (NCI-H2087; first compound 0.253 µM)?
A: 0.168

Q: What about the relative viability (NCI-H2087; first compound 0.8 µM) of the same molecule?
A: 0.215

Q: What about the relative viability (NCI-H2087; first compound 2.53 µM) of the same molecule?
A: 0.147

Q: What about the relative viability (NCI-H1650; first compound 0.08 µM) of the same molecule?
A: 0.568

Q: What about the relative viability (NCI-H1650; first compound 0.253 µM) of the same molecule?
A: 0.511

Q: What about the relative viability (NCI-H1650; first compound 0.8 µM) of the same molecule?
A: 0.591

Q: And the relative viability (NCI-H1650; first compound 2.53 µM)?
A: 0.303

Q: And the relative viability (SK-LU-1; first compound 0.08 µM)?
A: 0.537

Q: What about the relative viability (SK-LU-1; first compound 0.253 µM) of the same molecule?
A: 0.44

Q: And the relative viability (SK-LU-1; first compound 0.8 µM)?
A: 0.543

Q: And the relative viability (SK-LU-1; first compound 2.53 µM)?
A: 0.582

Q: What about the relative viability (COR-L23; first compound 0.08 µM) of the same molecule?
A: 0.651

Q: What about the relative viability (COR-L23; first compound 0.253 µM) of the same molecule?
A: 0.597

Q: And the relative viability (COR-L23; first compound 0.8 µM)?
A: 0.543

Q: And the relative viability (COR-L23; first compound 2.53 µM)?
A: 0.531

Q: And the relative viability (201T; first compound 0.08 µM)?
A: 0.78

Q: What about the relative viability (201T; first compound 0.253 µM) of the same molecule?
A: 0.648

Q: And the relative viability (201T; first compound 0.8 µM)?
A: 0.685

Q: What about the relative viability (201T; first compound 2.53 µM) of the same molecule?
A: 0.569
